Measured values from ChEMBL document CHEMBL3763036, “Structural optimization of non-nucleoside DNA methyltransferase inhibitor as anti-cancer agent” (Bioorg Med Chem Lett, 2016).

What was measured:
NCI-H292 = assay: Antiproliferative activity against human NCI-H292 cells; type: functional, cell-based
[1] = biological target: DNA (cytosine-5)-methyltransferase 1 (Homo sapiens) (UniProt P26358); assay: Inhibition of DNMT1 in human NCI-H292 cells at 50 uM after 48 hrs by Western blot analysis relative to control; type: cell-based
[2] = biological target: DNA (cytosine-5)-methyltransferase 1 (Homo sapiens) (UniProt P26358); assay: Inhibition of DNMT1 in human NCI-H292 cells at 100 uM after 48 hrs by Western blot analysis relative to control; type: cell-based

Chain of DNA (cytosine-5)-methyltransferase 1 (Homo sapiens) (P26358 whole entry): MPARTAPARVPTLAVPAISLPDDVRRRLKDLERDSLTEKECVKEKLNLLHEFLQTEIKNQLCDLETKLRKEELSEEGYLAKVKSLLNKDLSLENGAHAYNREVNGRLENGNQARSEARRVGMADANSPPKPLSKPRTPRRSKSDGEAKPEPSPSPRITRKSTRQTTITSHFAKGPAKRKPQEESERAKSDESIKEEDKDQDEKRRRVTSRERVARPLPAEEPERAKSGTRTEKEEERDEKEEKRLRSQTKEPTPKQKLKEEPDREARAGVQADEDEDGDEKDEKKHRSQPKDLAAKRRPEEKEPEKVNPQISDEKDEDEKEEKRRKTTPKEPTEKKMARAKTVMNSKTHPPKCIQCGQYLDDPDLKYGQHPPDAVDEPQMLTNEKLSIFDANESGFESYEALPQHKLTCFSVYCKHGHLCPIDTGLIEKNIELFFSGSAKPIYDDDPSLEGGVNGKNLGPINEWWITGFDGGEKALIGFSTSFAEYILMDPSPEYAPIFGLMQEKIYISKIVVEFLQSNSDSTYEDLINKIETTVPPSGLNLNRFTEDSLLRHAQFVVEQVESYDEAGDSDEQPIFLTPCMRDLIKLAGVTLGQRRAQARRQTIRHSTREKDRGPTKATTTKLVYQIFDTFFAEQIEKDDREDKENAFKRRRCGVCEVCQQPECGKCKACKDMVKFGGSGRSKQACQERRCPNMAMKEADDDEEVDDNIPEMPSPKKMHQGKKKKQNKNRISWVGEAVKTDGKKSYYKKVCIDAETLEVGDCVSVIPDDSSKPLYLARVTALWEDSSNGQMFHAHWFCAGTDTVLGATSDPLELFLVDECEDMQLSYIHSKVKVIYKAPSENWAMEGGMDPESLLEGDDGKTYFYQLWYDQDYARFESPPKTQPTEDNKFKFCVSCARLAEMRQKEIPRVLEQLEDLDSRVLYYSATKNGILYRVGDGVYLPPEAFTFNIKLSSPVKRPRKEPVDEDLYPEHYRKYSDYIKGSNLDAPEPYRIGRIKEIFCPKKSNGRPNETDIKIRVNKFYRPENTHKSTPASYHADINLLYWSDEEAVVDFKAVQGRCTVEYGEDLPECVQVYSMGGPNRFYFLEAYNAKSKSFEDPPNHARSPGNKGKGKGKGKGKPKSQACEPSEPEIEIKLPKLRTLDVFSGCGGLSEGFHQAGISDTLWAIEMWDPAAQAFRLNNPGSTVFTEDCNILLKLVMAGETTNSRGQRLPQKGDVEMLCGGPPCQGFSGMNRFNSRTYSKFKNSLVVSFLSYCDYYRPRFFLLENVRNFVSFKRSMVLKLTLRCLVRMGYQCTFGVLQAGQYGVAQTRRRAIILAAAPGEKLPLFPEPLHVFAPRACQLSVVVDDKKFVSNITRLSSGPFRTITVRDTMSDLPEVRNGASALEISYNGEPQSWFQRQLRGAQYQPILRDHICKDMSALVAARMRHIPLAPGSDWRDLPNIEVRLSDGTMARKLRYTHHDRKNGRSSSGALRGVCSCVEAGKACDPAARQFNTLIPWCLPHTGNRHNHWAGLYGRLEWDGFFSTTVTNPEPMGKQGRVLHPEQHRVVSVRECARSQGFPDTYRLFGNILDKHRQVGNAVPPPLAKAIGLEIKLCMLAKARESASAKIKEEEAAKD

Compound | IC50 (NCI-H292) [µM] | fold change (FC) [1] | fold change (FC) [2]
COc1cccc(N2C(=O)N/C(=C\c3ccc(O)cc3)C2=O)c1 | > 200 |  | 
O=C(Nc1ccc(Cl)cc1)c1ccc(N2C(=O)N/C(=C\c3ccc(O)cc3)C2=O)cc1 | > 200 |  | 
O=C(NCC1CCCCC1)c1ccc(N2C(=O)N/C(=C\c3ccc(O)cc3)C2=O)cc1 | > 200 |  | 
O=C(O)c1cccc(N2C(=O)N/C(=C\c3ccc(O)cc3)C2=O)c1 | > 200 |  | 
O=C1N/C(=C\c2ccc(O)cc2)C(=O)N1c1cccc(I)c1 | > 200 |  | 
CCOC(=O)c1ccc(N2C(=O)N/C(=C\c3ccc(O)cc3)C2=O)cc1 | > 200 |  | 
O=C(NCc1ccccc1)c1ccc(N2C(=O)N/C(=C\c3ccc(O)cc3)C2=O)cc1 | > 200 |  | 
O=C(c1cccc(N2C(=O)N/C(=C\c3ccc(O)cc3)C2=O)c1)N1CCCC1 | > 200 |  | 
O=C(O)c1ccc(N2C(=O)N/C(=C\c3ccc(O)cc3)C2=O)cc1 | > 200 |  | 
Cc1cccc(N2C(=O)N/C(=C\c3ccc(O)cc3)C2=O)c1 | > 200 |  | 
O=C1N/C(=C\c2ccc(O)cc2)C(=O)N1c1cccc(Br)c1 | > 200 |  | 
O=C1N/C(=C\c2ccc3ccccc3c2)C(=O)N1c1ccc(Cl)cc1 | > 200 |  | 
COc1cc(/C=C2\NC(=O)N(c3ccc(Cl)cc3)C2=O)cc(OC)c1OC | > 200 |  | 

Other lines, results leading:

IC50 (NCI-H292) [µM] | fold change (FC) [1] | fold change (FC) [2] | Compound
> 200 |  |  | O=C(c1ccc(N2C(=O)N/C(=C\c3ccc(O)cc3)C2=O)cc1)N1CCCC1
> 200 |  |  | COc1ccc(N2C(=O)N/C(=C\c3ccc(O)cc3)C2=O)cc1
35.6 | 0.99 |  | O=C1N/C(=C\c2ccc(Cl)cc2)C(=O)N1c1ccc(Cl)cc1
28.5 |  |  | O=C1/C(=C/c2ccc(O)cc2)NC(=S)N1c1ccc(Cl)cc1
27.9 | 0.32 |  | Cc1ccc(N2C(=O)N/C(=C\c3ccc(O)cc3)C2=O)cc1
69.9 |  |  | O=C1N/C(=C\c2ccc(O)cc2)C(=O)N1c1ccc(Br)cc1
41.3 |  | 1.08 | O=C1N/C(=C\c2ccc(O)cc2)C(=O)N1c1ccc(Cl)cc1
23.5 | 0.27 |  | O=C(NCc1ccccc1)c1cccc(N2C(=O)N/C(=C\c3ccc(O)cc3)C2=O)c1
17.9 | 0.25 |  | O=C(NCC1CCCCC1)c1cccc(N2C(=O)N/C(=C\c3ccc(O)cc3)C2=O)c1
32.1 | 1.19 |  | COc1ccc(/C=C2\NC(=O)N(c3ccc(Cl)cc3)C2=O)cc1
19.7 |  |  | O=C1/C(=C/c2ccc(O)cc2)NC(=S)N1c1ccc(I)cc1
25.5 | 0.01 |  | O=C1N/C(=C\c2ccc(O)cc2)C(=O)N1c1ccc(I)cc1
125 |  |  | O=C(Nc1ccc(Cl)cc1)c1cccc(N2C(=O)N/C(=C\c3ccc(O)cc3)C2=O)c1
46.6 |  |  | O=C1N/C(=C\c2ccc(Br)cc2)C(=O)N1c1ccc(Cl)cc1
